The results in this text go back to ChEMBL document CHEMBL3600281, “Synthesis and anticancer properties of new (dihydro)pyranonaphthoquinones and their epoxy analogs” (Bioorg Med Chem Lett, 2015).

SMILES strings stand for the structures. The source made the active and inactive calls. No cut-off for these calls is given here. Some results are limits rather than exact numbers.

Test [1] has as its system KB. The experiment in a line: Cytotoxicity against human KB cells. The test is classed as functional, cell-based.
In test [2] the test system is Candida albicans. The experiment in a line: Antifungal activity against Candida albicans. In kind it is functional, organism-based.
The nature of test [3]: Cytotoxicity against human Lu cells. The test is classed as functional, cell-based.
Test [4] has as its system Escherichia coli. The experiment in a line: Antibacterial activity against Escherichia coli. The test is classed as functional, organism-based.
For test [5], the system named is Pseudomonas aeruginosa. The experiment in a line: Antibacterial activity against Pseudomonas aeruginosa. The test is classed as functional, organism-based.
Test [6] relates to HepG2. Briefly: Cytotoxicity against human HepG2 cells. The test is classed as functional, cell-based.
For test [7], the system named is MCF7. Briefly: Cytotoxicity against human MCF7 cells. The test is classed as functional, cell-based.
For test [8], the system named is Bacillus subtilis. Briefly: Antibacterial activity against Bacillus subtilis. In kind it is functional, organism-based.
Test [9] deals with Staphylococcus aureus. Briefly: Antibacterial activity against Staphylococcus aureus. In kind it is functional, organism-based.

As to `O=C1C2=C(CC(c3ccc(F)cc3)OC2)C(=O)c2ccccc21` (centres undefined), the IC50 in test [1] is 20.6 µM; in test [3], 22.1 µM; in test [6], 23.4 µM; in [7] it was over 32.4 µM. The result in [2], in [4], in test [5], in test [8] and in [9] was inactive.
With `O=C1C2=C(COC(c3ccc(F)cc3)=C2)C(=O)c2ccccc21`, the IC50 came out at 1.5 µM in [1], 11.5 µM in test [3], 3.6 µM in [6] and 12.9 µM in test [7]. Moreover, the result in test [2], in [4], in test [5], in test [8] and in test [9] was inactive.
Regarding `CC(C)C1CC2=C(CO1)C(=O)c1ccccc1C2=O` (centres undefined), the IC50 in test [1] was 17.5 µM; in [3], over 39 µM; in test [6], 19.8 µM; in test [7], 26.2 µM. The result in test [2], in [4], in test [5], in test [8] and in [9] was inactive.
Regarding `CC(C)C1C[C@@]23O[C@]2(CO1)C(=O)c1ccccc1C3=O` (some centres undefined), the IC50 in [1], in test [3], in [6] and in test [7] was over 32.6 µM in each case. Also, the outcome in test [2], in test [4], in test [5], in [8] and in test [9] was inactive.
On to `CC1=CC2=C(CO1)C(=O)c1ccccc1C2=O`, for which the IC50 in [1] came out at 5.6 µM; in test [3], 13.1 µM; in [6], 6.7 µM; in test [7], 29.5 µM. Also, the result in [2], in [4], in test [5] and in test [8] was inactive. Also, the result in test [9] was Active.
As to `CC(C)C1=CC2=C(CO1)C(=O)c1ccccc1C2=O`, the IC50 in test [1] came to 4.1 µM; in [3] it was 14.9 µM; in [6], 10.7 µM; in test [7] it was 6.7 µM. The outcome in test [2], in test [4], in [5] and in test [8] was inactive. Moreover, the outcome in test [9] was Active.
For the molecule `O=C1C2=C(CC(c3ccccc3)OC2)C(=O)c2ccccc21` (centres undefined), the IC50 in test [1] is 16.1 µM; in [3], over 34.4 µM; in [6], 18.7 µM; in test [7], 27.2 µM. Moreover, the outcome in test [2], in [4], in test [5], in [8] and in test [9] was inactive.
On to `O=C1c2ccccc2C(=O)[C@]23COC(c4ccc(F)cc4)C[C@]12O3` (some centres undefined), for which the IC50 in test [1], in test [3], in test [6] and in [7] was over 30.8 µM in each case. In addition, the outcome in test [2], in [4], in test [5], in [8] and in test [9] was inactive.
Regarding `CC1=C[C@@]23O[C@]2(CO1)C(=O)c1ccccc1C3=O`, the 50% inhibitory concentration (IC50) in [1], in [3], in test [6] and in [7] was over 41.3 µM throughout. For the same molecule, the result in test [2], in test [4], in [5], in [8] and in test [9] was inactive.
For `Cc1c2ccncc2c(C)c2c1[nH]c1ccccc12` [ELLIPTECINE], the IC50 in test [3] amounted to 2.2 µM; in [6], 1.3 µM; in test [7], 1.8 µM.
`O=C1c2ccccc2C(=O)[C@]23COC(c4ccc(F)cc4)=C[C@]12O3`: the 50% inhibitory concentration (IC50) in test [1], in test [3], in [6] and in test [7] was over 31 µM each time. Moreover, the outcome in test [2], in test [4], in test [5], in test [8] and in test [9] was inactive.
On to `CC1CC2=C(CO1)C(=O)c1ccccc1C2=O` (centres undefined), for which the IC50 in test [1] came out at 25.3 µM; in [3], 23.2 µM; in test [6], 22.5 µM; in test [7] it was 22.1 µM. The result in test [2], in test [4], in test [5], in [8] and in test [9] was inactive.
For the molecule `CC1C[C@@]23O[C@]2(CO1)C(=O)c1ccccc1C3=O` (some centres undefined), the IC50 in test [1], in test [3], in test [6] and in [7] was over 41 µM throughout. For the same molecule, the result in [2], in test [4], in test [5], in test [8] and in [9] was inactive.
Turning to `O=C1C2=C(COC(c3ccccc3)=C2)C(=O)c2ccccc21`, the IC50 in [1] was 7.5 µM; in test [3] it was over 34.7 µM; in [6], 12.2 µM; in [7] it was over 34.7 µM. Further, the result in test [2], in test [4], in test [5], in test [8] and in test [9] was inactive.
For `O=C1c2ccccc2C(=O)[C@]23COC(c4ccccc4)=C[C@]12O3`, the IC50 in test [1], in [3], in test [6] and in test [7] was over 32.9 µM each time. The result in test [2], in test [4], in [5], in test [8] and in test [9] was inactive.
